According to PubChem BioAssay AID248 (DTP/NCI, 2004):
Where “and” joins values, the source holds several entries; their conditions need not be identical. Identical values can stand only once. Inconclusive results and toxic doses are left out. Rule as the data show it: active = T/C of 150% or more; inactive = T/C below 125%. Square brackets hold non-standard residues; d marks the D form. Peptide text beside a SMILES is read from it. ξ: configuration not given here. ξF = NC(Cc1ccccc1)C(=O)O

Tested on: L1210 leukemia ip in BDF1 mice, survival T/C
Assay: NCI In Vivo Anticancer Drug Screen. Data for tumor model L1210 Leukemia (intraperitoneal) in B6D2F1 (BDF1) mice
Conditions: endpoint: mean survival time, higher = longer survival
How it was run: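 Tumor cells were implanted, animals were treated, and survival was followed. The result divides the treated measurement by the vehicle-control measurement.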

[1] = dose: 100.0 mg/kg/injection, schedule: Q01DX009 (ip), vehicle: saline with Tween-80
[2] = dose: 100.0 mg/kg/injection, schedule: Q01DX001 (ip), vehicle: carboxymethylcellulose (CMC)
[3] = dose: 100.0 mg/kg/injection, schedule: Q01DX009 (ip), vehicle: Klucel (hydroxypropylcellulose) (HPC)
[4] = dose: 100.0 mg/kg/injection, schedule: Q04DX003 (ip), vehicle: Klucel (hydroxypropylcellulose) (HPC)
[5] = dose: 200.0 mg/kg/injection, schedule: Q01DX009 (ip), vehicle: Klucel (hydroxypropylcellulose) (HPC)
[6] = dose: 200.0 mg/kg/injection, schedule: Q04DX003 (ip), vehicle: Klucel (hydroxypropylcellulose) (HPC)
[7] = dose: 100.0 mg/kg/injection, schedule: Q01DX001 (ip), vehicle: saline
[8] = dose: 200.0 mg/kg/injection, schedule: Q01DX001 (ip), vehicle: saline

Measured: T/C

CSc1nc(N)nc2ncc(CN(C)c3ccc(C(=O)O)cc3)nc12
inactive: dose: 8.0 mg/kg/injection, schedule: Q01DX009 (ip), vehicle: DMSO 100 % of control | dose: 12.0 mg/kg/injection, schedule: Q01DX009 (ip), vehicle: DMSO 98 % of control | dose: 18.0 mg/kg/injection, schedule: Q01DX009 (ip), vehicle: DMSO 100 % of control | dose: 25.0 mg/kg/injection, schedule: Q01DX009 (ip), vehicle: DMSO 88 % of control | dose: 50.0 mg/kg/injection, schedule: Q01DX001 (ip), vehicle: DMSO 91 % of control

O=C(Nc1cccc(F)c1)N(CCO)C1CCCCC1
inactive: dose: 100.0 mg/kg/injection, schedule: Q01DX009 (ip), vehicle: saline 105 % of control | dose: 200.0 mg/kg/injection, schedule: Q01DX009 (ip), vehicle: saline 113 % of control | dose: 400.0 mg/kg/injection, schedule: Q01DX009 (ip), vehicle: saline 100 % of control

O=[N+]([O-])c1ccc(/C=C/C=C/c2ccc(Cl)cc2Cl)cc1
inactive: [1] 94 % of control | dose: 200.0 mg/kg/injection, schedule: Q01DX009 (ip), vehicle: saline with Tween-80 94 % of control

CCCCCCCCCCCCC(O)(CCC)C(=O)O (stereo not given)
inactive: dose: 100.0 mg/kg/injection, schedule: Q04DX002 (ip), vehicle: Klucel (hydroxypropylcellulose) (HPC) 102 % of control | dose: 200.0 mg/kg/injection, schedule: Q04DX002 (ip), vehicle: Klucel (hydroxypropylcellulose) (HPC) 98 % of control | dose: 400.0 mg/kg/injection, schedule: Q04DX002 (ip), vehicle: Klucel (hydroxypropylcellulose) (HPC) 98 % of control

COc1ccccc1NC(=O)N(CCCl)N=O
active: dose: 5.3 mg/kg/injection, schedule: Q01DX009 (ip), vehicle: carboxymethylcellulose (CMC) 165 % of control | dose: 8.0 mg/kg/injection, schedule: Q01DX009 (ip), vehicle: carboxymethylcellulose (CMC) 166 % of control and 236 % of control | dose: 12.0 mg/kg/injection, schedule: Q01DX009 (ip), vehicle: carboxymethylcellulose (CMC) 214 % of control and 247 % of control
inactive: dose: 0.8 mg/kg/injection, schedule: Q01DX001 (ip), vehicle: carboxymethylcellulose (CMC) 110 % of control | dose: 1.5 mg/kg/injection, schedule: Q01DX001 (ip), vehicle: carboxymethylcellulose (CMC) 106 % of control | dose: 1.5 mg/kg/injection, schedule: Q01DX009 (ip), vehicle: carboxymethylcellulose (CMC) 97 % of control | dose: 3.0 mg/kg/injection, schedule: Q01DX001 (ip), vehicle: carboxymethylcellulose (CMC) 108 % of control | dose: 3.5 mg/kg/injection, schedule: Q01DX009 (ip), vehicle: carboxymethylcellulose (CMC) 118 % of control and 124 % of control | dose: 6.0 mg/kg/injection, schedule: Q01DX001 (ip), vehicle: carboxymethylcellulose (CMC) 117 % of control | dose: 18.0 mg/kg/injection, schedule: Q01DX009 (ip), vehicle: carboxymethylcellulose (CMC) 116 % of control and 123 % of control | [2] 100 % of control

OC1(C#CC2(O)CCCCC2)CCCCC1
inactive: dose: 50.0 mg/kg/injection, schedule: Q01DX009 (ip), vehicle: Klucel (hydroxypropylcellulose) (HPC) 98 % of control | [3] 89 % of control | [4] 98 % of control | [5] 102 % of control | [6] 90 % of control

COC(=O)C1CC2CCC1O2 (stereo not given)
inactive: dose: 100.0 mg/kg/injection, schedule: Q01DX009 (ip), vehicle: carboxymethylcellulose (CMC) 100 % of control | dose: 200.0 mg/kg/injection, schedule: Q01DX009 (ip), vehicle: carboxymethylcellulose (CMC) 98 % of control | dose: 400.0 mg/kg/injection, schedule: Q01DX009 (ip), vehicle: carboxymethylcellulose (CMC) 94 % of control

Oc1ccc(O)c2c1C1c3ccccc3C2c2ccccc21
inactive: [7] 86 % of control | [8] 108 % of control

Cc1ccc(C)c(NC(=O)NCc2ccccc2Cl)c1
inactive: [3] 103 % of control | [4] 104 % of control | [5] 101 % of control | [6] 98 % of control | dose: 400.0 mg/kg/injection, schedule: Q01DX009 (ip), vehicle: Klucel (hydroxypropylcellulose) (HPC) 93 % of control | dose: 400.0 mg/kg/injection, schedule: Q04DX003 (ip), vehicle: Klucel (hydroxypropylcellulose) (HPC) 89 % of control

CC/C(=C(/Cl)c1ccccc1)c1ccccc1
inactive: dose: 100.0 mg/kg/injection, schedule: Q01DX001 (ip), vehicle: Klucel (hydroxypropylcellulose) (HPC) 98 % of control | dose: 200.0 mg/kg/injection, schedule: Q01DX001 (ip), vehicle: Klucel (hydroxypropylcellulose) (HPC) 102 % of control | dose: 400.0 mg/kg/injection, schedule: Q01DX001 (ip), vehicle: Klucel (hydroxypropylcellulose) (HPC) 100 % of control

O=[N+]([O-])c1cccc(NCn2c(=S)[nH]c3ccccc32)c1
inactive: [3] 102 % of control | [5] 106 % of control

C1CN2CN1CN1CCN(C1)C2
inactive: dose: 12.5 mg/kg/injection, schedule: Q01DX009 (ip), vehicle: saline 101 % of control | dose: 25.0 mg/kg/injection, schedule: Q01DX009 (ip), vehicle: saline 108 % of control | dose: 50.0 mg/kg/injection, schedule: Q01DX009 (ip), vehicle: saline 114 % of control

BrCC1OCCCO1
inactive: dose: 25.0 mg/kg/injection, schedule: Q01DX009 (ip), vehicle: saline with Tween-80 96 % of control | dose: 25.0 mg/kg/injection, schedule: Q04DX002 (ip), vehicle: saline 100 % of control | dose: 50.0 mg/kg/injection, schedule: Q04DX002 (ip), vehicle: saline 118 % of control | [1] 114 % of control | dose: 100.0 mg/kg/injection, schedule: Q04DX002 (ip), vehicle: saline with Tween-80 117 % of control | dose: 100.0 mg/kg/injection, schedule: Q04DX002 (ip), vehicle: saline 100 % of control

O=NN(CCF)C(=O)NC1CCC(C(=O)O)CC1 (stereo not given)
active: dose: 20.0 mg/kg/injection, schedule: Q01DX001 (ip), vehicle: saline with Tween-80 152 % of control | dose: 30.0 mg/kg/injection, schedule: Q01DX001 (ip), vehicle: saline with Tween-80 263 % of control and 206 % of control | dose: 45.0 mg/kg/injection, schedule: Q01DX001 (ip), vehicle: saline with Tween-80 306 % of control and 432 % of control | dose: 66.0 mg/kg/injection, schedule: Q01DX001 (ip), vehicle: saline with Tween-80 500 % of control
inactive: dose: 4.0 mg/kg/injection, schedule: Q01DX001 (ip), vehicle: saline with Tween-80 105 % of control and 106 % of control | dose: 6.0 mg/kg/injection, schedule: Q01DX001 (ip), vehicle: saline with Tween-80 108 % of control | dose: 9.0 mg/kg/injection, schedule: Q01DX001 (ip), vehicle: saline with Tween-80 116 % of control and 119 % of control | dose: 13.0 mg/kg/injection, schedule: Q01DX001 (ip), vehicle: saline with Tween-80 117 % of control

O=C(CCCC(=O)N/N=C/c1cccc(Br)c1)N/N=C\c1cccc(Br)c1
inactive: dose: 50.0 mg/kg/injection, schedule: Q01DX001 (ip), vehicle: carboxymethylcellulose (CMC) 90 % of control | [2] 88 % of control

O=C1CC2=C(CC(O)=CC=C2)C(=O)O1
inactive: dose: 100.0 mg/kg/injection, schedule: Q04DX003 (ip), vehicle: saline 104 % of control | dose: 200.0 mg/kg/injection, schedule: Q04DX003 (ip), vehicle: saline 100 % of control | dose: 400.0 mg/kg/injection, schedule: Q04DX003 (ip), vehicle: saline 93 % of control

CC(C)OC(=O)C1(N)CCCC1
inactive: dose: 25.0 mg/kg/injection, schedule: Q01DX Z (ip), vehicle: carboxymethylcellulose (CMC) 105 % of control | dose: 30.0 mg/kg/injection, schedule: Q01DX Z (ip), vehicle: saline 113 % of control | dose: 40.0 mg/kg/injection, schedule: Q01DX Z (ip), vehicle: other 119 % of control | dose: 45.0 mg/kg/injection, schedule: Q01DX Z (ip), vehicle: saline 118 % of control | dose: 50.0 mg/kg/injection, schedule: Q01DX Z (ip), vehicle: carboxymethylcellulose (CMC) 122 % of control | dose: 150.0 mg/kg/injection, schedule: Q01DX Z (ip), vehicle: saline 89 % of control | dose: 200.0 mg/kg/injection, schedule: Q01DX Z (ip), vehicle: carboxymethylcellulose (CMC) 88 % of control

NCC(=O)NC(Cc1ccccc1)C(=O)O (stereo not given) (H-Gly-[ξF]-OH)
inactive: dose: 50.0 mg/kg/injection, schedule: Q01DX001 (ip), vehicle: saline 110 % of control | [7] 96 % of control | [8] 112 % of control | dose: 400.0 mg/kg/injection, schedule: Q01DX001 (ip), vehicle: saline 107 % of control

NC(=O)c1ccccc1Nc1ccc([N+](=O)[O-])cc1[N+](=O)[O-]
inactive: dose: 34.0 mg/kg/injection, schedule: Q01DX Z (ip), vehicle: carboxymethylcellulose (CMC) 95 % of control | dose: 49.0 mg/kg/injection, schedule: Q01DX Z (ip), vehicle: carboxymethylcellulose (CMC) 95 % of control
